Laboratory results as given in patent US7838530B2, “Quinazoline derivatives as antiproliferative agents” (AstraZeneca AB, priority 2003, dated 2010).

Columns and labels:
KB cells = assay: EGFR driven KB cell proliferation assay, Test (b); assay type: cell-based; details: Homo sapiens, 96 h, EGF 1 ng/ml, incubation for 4 days, MTT
Description: This assay measures the ability of a test compound to inhibit the proliferation of KB cells (human naso-pharangeal carcinoma obtained from the American Type Culture Collection (ATCC).
KB cells (human naso-pharangeal carcinoma obtained from the ATCC were cultured in Dulbecco's modified Eagle's medium (DMEM) containing 10% foetal calf serum, 2 mM glutamine and non-essential amino acids at 37° C. in a 7.5% CO2 air incubator. Cells were harvested from the stock flasks using Trypsin/ethylaminediaminetetraacetic acid (EDTA). Cell density was measured using a haemocytometer and viability was calculated using trypan blue solution before being seeded at a density of 1.25×10^3 cells per well of a 96 well plate in DMEM containing 2.5% charcoal stripped serum, 1 mM glutamine and non-essential amino acids at 37° C. in 7.5% CO2 and allowed to settle for 4 hours.
Following adhesion to the plate, the cells are treated with or without EGF (final concentration of 1 ng/ml) and with or without compound at a range of concentrations in dimethylsulfoxide (DMSO) (0.1% final) before incubation for 4 days. Following the incubation period, cell numbers were determined by addition of 50 μl of 3-(4,5-Dimethylthiazol-2-yl)-2,5-diphenyltetrazolium bromide (MTT) (stock 5 mg/ml) for 2 hours. MTT solution was then tipped off, the plate gently tapped dry and the cells dissolved upon the addition of 100 μl of DMSO.
Absorbance of the solubilised cells was read at 540 nm using a Molecular Devices ThermoMax microplate reader. Inhibition of proliferation was expressed as an IC50 value. This was determined by calculation of the concentration of compound that was required to give 50% inhibition of proliferation. The range of proliferation was calculated from the positive (vehicle plus EGF) and negative (vehicle minus EGF) control values.

[1] = target: T1, EGFR tyrosine kinase enzyme (Homo sapiens, UniProt P00533); assay: Protein tyrosine kinase phosphorylation assay, Test (a); assay type: biochemical; details: ATP at Km concentration; read-out: IC50 (nM) Test (a) (inhibition of tyrosine kinase protein phosphorylation)
T1 construct: Recombinant intracellular fragments of EGFR, erbB2 and erbB4; made in house; host or cells: baculovirus/Sf21 insect cells
T1 sequence (P00533 669-1210 limits assumed): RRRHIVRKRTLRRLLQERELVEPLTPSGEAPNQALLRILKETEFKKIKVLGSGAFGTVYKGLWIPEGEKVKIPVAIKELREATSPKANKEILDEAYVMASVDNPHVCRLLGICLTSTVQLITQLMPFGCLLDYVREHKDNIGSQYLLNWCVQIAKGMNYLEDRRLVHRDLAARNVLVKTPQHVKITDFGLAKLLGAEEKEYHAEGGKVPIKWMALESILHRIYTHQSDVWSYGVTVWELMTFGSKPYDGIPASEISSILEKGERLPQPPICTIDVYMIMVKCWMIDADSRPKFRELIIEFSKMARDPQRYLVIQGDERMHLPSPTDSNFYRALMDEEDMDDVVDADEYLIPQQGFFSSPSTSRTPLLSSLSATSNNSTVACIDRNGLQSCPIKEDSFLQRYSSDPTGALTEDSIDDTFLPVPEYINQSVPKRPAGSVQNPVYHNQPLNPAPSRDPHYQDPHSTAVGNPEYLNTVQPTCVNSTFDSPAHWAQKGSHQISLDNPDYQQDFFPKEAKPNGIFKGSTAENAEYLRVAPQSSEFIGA
Description: This test measures the ability of a test compound to inhibit the phosphorylation of a tyrosine containing polypeptide substrate by EGFR tyrosine kinase enzyme.
Recombinant intracellular fragments of EGFR, erbB2 and erbB4 (accession numbers X00588, X03363 and L07868 respectively) were cloned and expressed in the baculovirus/Sf21 system. Lysates were prepared from these cells by treatment with ice-cold lysis buffer (20 mM N-2-hydroxyethylpiperizine-N′-2-ethanesulfonic acid (HEPES) pH7.5, 150 mM NaCl, 10% glycerol, 1% Triton X-100, 1.5 mM MgCl2, 1 mM ethylene glycol-bis(β-aminoethyl ether) N′,N′,N′,N′-tetraacetic acid (EGTA), plus protease inhibitors and then cleared by centrifugation.
Constitutive kinase activity of the recombinant protein was determined by its ability to phosphorylate a synthetic peptide (made up of a random co-polymer of Glutamic Acid, Alanine and Tyrosine in the ratio of 6:3:1). Specifically, Maxisorb™ 96-well immunoplates were coated with synthetic peptide (0.2 μg of peptide in a 100 μl phosphate buffered saline (PBS) solution and incubated at 4° C. overnight). Plates were washed in PBS-T (phosphate buffered saline with 0.5% Tween 20) then in 50 mM HEPES pH 7.4 at room temperature to remove any excess unbound synthetic peptide. EGFR, ErbB2 or ErbB4 tyrosine kinase activity was assessed by incubation in peptide coated plates for 20 minutes at 22° C. in 100 mM HEPES pH 7.4, adenosine trisphosphate (ATP) at Km concentration for the respective enzyme, 10 mM MnCl2, 0.1 mM Na3VO4, 0.2 mM DL-dithiothreitol (DTT), 0.1% Triton X-100 with test compound in DMSO (final concentration of 2.5%). Reactions were terminated by the removal of the liquid components of the assay followed by washing of the plates with PBS-T.
The immobilised phospho-peptide product of the reaction was detected by immunological methods. Firstly, plates were incubated for 90 minutes at room temperature with anti-phosphotyrosine primary antibodies that were raised in the mouse (4G10 from Upstate Biotechnology). Following extensive washing, plates were treated with Horseradish Peroxidase ([…]) conjugated sheep anti-mouse secondary antibody (NXA931 from Amersham) for 60 minutes at room temperature. After further washing, HRP activity in each well of the plate was measured colorimetrically using 22′-Azino-di-[3-ethylbenzthiazoline sulfonate (6)] diammonium salt crystals (ABTS™ from Roche) as a substrate.
Quantification of colour development and thus enzyme activity was achieved by the measurement of absorbance at 405 nm on a Molecular Devices ThermoMax microplate reader. Kinase inhibition for a given compound was expressed as an IC50 value. This was determined by calculation of the concentration of compound that was required to give 50% inhibition of phosphorylation in this assay. The range of phosphorylation was calculated from the positive (vehicle plus ATP) and negative (vehicle minus ATP) control values.

IC50 (KB cells) [nM] | IC50 [1] [nM] | SMILES
17 | < 1 | COc1cc2ncnc(Nc3cccc(Cl)c3F)c2cc1OC1CCN(C(=O)c2ccno2)CC1 [Compound 1, N-(3-chloro-2-fluorophenyl)-6-{[1-(isoxazol-5-ylcarbonyl)piperidin-4-yl]oxy}-7-methoxyquinazolin-4-amine]
17 | < 1 | COc1cc2ncnc(Nc3cccc(Cl)c3F)c2cc1OC1CCN(C(=O)Nc2c(C)noc2C)CC1 [Compound 96, 4-({4-[(3-Chloro-2-fluorophenyl)amino]-7-methoxyquinazolin-6-yl}oxy)-N-(3,5-dimethylisoxazol-4-yl)piperidine-1-carboxamide]

Second part, the compound before the results:

SMILES | IC50 (KB cells) [nM] | IC50 [1] [nM]
COc1cc2c(Nc3cccc(Cl)c3F)ncnc2cc1OC1CCN(C(=O)Cc2cc(C)no2)CC1 [Compound 33, N-(3-chloro-2-fluorophenyl)-6-methoxy-7-({1-[(3-methylisoxazol-5-yl)acetyl]piperidin-4-yl}oxy)quinazolin-4-amine] | 47 | 15
COc1cc2ncnc(Nc3cccc(Cl)c3F)c2cc1OC1CCN(C(=O)c2ccccn2)CC1 [Compound 10, N-(3-chloro-2-fluorophenyl)-7-methoxy-6-{[1-(pyridin-2-ylcarbonyl)piperidin-4-yl]oxy}quinazolin-4-amine] | 16 | 14
COc1cc2ncnc(Nc3cccc(Cl)c3F)c2cc1O[C@@H]1CCCN(C(=O)Cc2cccs2)C1 [Compound 60, N-(3-chloro-2-fluorophenyl)-7-methoxy-6-{[(3R)-1-(2-thienylacetyl)piperidin-3-yl]oxy}quinazolin-4-amine] | 30 | < 1
COc1cc2c(Nc3cccc(Cl)c3F)ncnc2cc1OC1CCN(C(=O)c2cccnc2)CC1 [Compound 34, N-(3-chloro-2-fluorophenyl)-7-{[1-(pyridin-3-ylcarbonyl)piperidin-4-yl]oxy}-6-methoxyquinazolin-4-amine] | 87 | 43
